The record followed here is paper PMC8085067, “The dimer-monomer equilibrium of SARS-CoV-2 main protease is affected by small molecule inhibitors” (Scientific Reports, 2021).

“Also recorded” adds a separate entry of the source.

This test has as its target SARS-CoV-2 M^pro (Severe acute respiratory syndrome coronavirus 2, UniProt P0DTD1). Nature of the test: M^pro activity assay and inhibition (fluorogenic substrate). It counts as biochemical. To be noted: for inhibition of M^pro catalytic activity (in words) / slope m of the fluorescence inhibition curve: inhibitor 30 μM; for inhibition of M^pro catalytic activity (in words): fluorescence assay; for slope m of the fluorescence inhibition curve: ≈0.2 μM M^pro, 40 μM substrate, 30 °C, 20 min preincubation, linear fit up to 30 min.

Regarding `CCNC(=O)c1noc(-c2c(F)c(F)c(NCCN(CCNc3c(F)c(F)c(-c4nc(C(=O)NCC)no4)c(F)c3F)CCNc3c(F)c(F)c(-c4nc(C(=O)NCC)no4)c(F)c3F)c(F)c2F)n1` [Inhibitor 7, 5,5’,5”-(((nitrilotris(ethane-2,1-diyl))tris(azanediyl))tris(2,3,5,6-tetrafluorobenzene-4,1-diyl))tris(N-ethyl-1,2,4-oxadiazole-3-carboxamide)], the “inhibition of M^pro catalytic activity (in words)” value (from here on “inhibition … (in words)”) is reported as “irreversible inactivation of the enzyme; also recorded: promising inhibition effect”; the “slope m of the fluorescence inhibition curve” value was 1±3 RFU/min and ≈ 1 RFU/min. The molecule also gave a Hill slope n (Hill equation fit of percent inhibition) of 3±1. The half-maximal inhibitory concentration (IC50) (commonly the midpoint of a concentration-inhibition curve) (Hill equation fit of percent inhibition vs inhibitor concentration) is 15 ± 2 µM.
Regarding `Fc1c(F)c(N2CCOCCOCCOCCOCCOCC2)c(F)c(F)c1-c1nc(-c2ccccc2)no1` [Inhibitor 4, 16-(2,3,5,6-tetrafluoro-4-(3-phenyl-1,2,4-oxadiazol-5-yl)phenyl)-1,4,7,10,13-pentaoxa-16-azacyclooctadecane], the “inhibition … (in words)” value was “irreversible inactivation of the enzyme; also recorded: most effective among the seven inhibitors”; the “slope m of the fluorescence inhibition curve” value was 0±6 RFU/min and ≈ 0 RFU/min.
Take `OCCN(CCOc1c(F)c(F)c(-c2nc(-c3ccncc3)no2)c(F)c1F)CCOc1c(F)c(F)c(-c2nc(-c3ccncc3)no2)c(F)c1F` [Inhibitor 3]: the “inhibition … (in words)” value is “week” and the “slope m of the fluorescence inhibition curve” value worked out at 23±3 RFU/min.
